Data: PMC4125290, “Cyclic di-GMP-dependent Signaling Pathways in the Pathogenic Firmicute Listeria monocytogenes” (PLoS Pathogens, 2014)

Key:
Assay in all cases: HPLC of c-di-GMP hydrolysis to pGpG
Assay type in all cases: biochemical
Conditions in all cases: 250 µM c-di-GMP, 1-5 µM enzyme, 37°C
[1] = biological target: T1, PdeD (Lmo0111), PdeD::His6 (Listeria monocytogenes, UniProt Q8YAK7)
T1 construct: tag kept

[2] = biological target: T2, PdeC (Lmo1914), MBP::PdeC (Listeria monocytogenes, UniProt Q8Y5Y9)
T2 construct: MBP fusion (pMAL-c2x), E. coli DH5alpha, amylose resin; MBP kept

[3] = biological target: T3, PdeB (Lmo0131), PdeB::His6 (Listeria monocytogenes, UniProt Q8YAJ4)
T3 construct: tag kept
T3 sequence (Q8YAJ4 entry or part of it): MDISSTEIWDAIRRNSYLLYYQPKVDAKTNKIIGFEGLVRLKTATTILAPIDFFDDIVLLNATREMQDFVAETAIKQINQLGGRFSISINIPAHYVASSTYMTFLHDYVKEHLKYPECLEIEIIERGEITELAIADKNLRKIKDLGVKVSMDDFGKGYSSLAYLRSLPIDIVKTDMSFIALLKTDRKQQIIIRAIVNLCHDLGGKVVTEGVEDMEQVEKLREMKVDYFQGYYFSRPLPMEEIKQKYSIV

T1 sequence (Q8YAK7 entry or part of it): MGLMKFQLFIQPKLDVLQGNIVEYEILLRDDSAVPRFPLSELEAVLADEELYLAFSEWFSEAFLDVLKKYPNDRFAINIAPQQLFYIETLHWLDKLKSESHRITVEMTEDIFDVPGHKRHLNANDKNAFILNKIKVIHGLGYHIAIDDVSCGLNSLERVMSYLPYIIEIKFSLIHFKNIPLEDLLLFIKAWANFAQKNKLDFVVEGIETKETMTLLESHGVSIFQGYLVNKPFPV
T2 sequence (Q8Y5Y9 entry or part of it): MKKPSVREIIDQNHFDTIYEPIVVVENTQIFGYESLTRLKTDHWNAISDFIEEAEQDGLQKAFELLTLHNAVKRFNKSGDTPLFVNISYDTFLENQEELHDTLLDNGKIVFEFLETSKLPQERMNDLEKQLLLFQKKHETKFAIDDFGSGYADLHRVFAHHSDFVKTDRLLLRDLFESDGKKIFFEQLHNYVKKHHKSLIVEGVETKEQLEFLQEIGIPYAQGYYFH

With `Nc1nc2c(ncn2[C@@H]2O[C@@H]3COP(=O)(O)O[C@H]4[C@@H](O)[C@H](n5cnc6c(=O)[nH]c(N)nc65)O[C@@H]4COP(=O)(O)O[C@H]3[C@H]2O)c(=O)[nH]1` [c-di-GMP] the “HPLC of c-di-GMP hydrolysis to pGpG” value [1] was “all three recombinant proteins possess c-di-GMP PDE activities in vitro”, the “HPLC of c-di-GMP hydrolysis to pGpG” value [2] was “all three recombinant proteins possess c-di-GMP PDE activities in vitro” and the “HPLC of c-di-GMP hydrolysis to pGpG” value [3] was “all three recombinant proteins possess c-di-GMP PDE activities in vitro”.
